From ChEMBL document CHEMBL5244222, “A comprehensive review on xanthone derivatives as α-glucosidase inhibitors” (Eur J Med Chem, 2018)
In brackets after ≈: the same amount, converted by molar mass. One block for each compound: values may come before it.

Columns and labels:
[1] = target: T1, Alpha-glucosidase (Saccharomyces cerevisiae S288c, UniProt P53341+P38158+P07265); experiment: Inhibition of Saccharomyces cerevisiae alpha-glucosidase assessed as release of p-nitrophenol using pNPG as substrate preincubated for 15 mins followed by substrate addition and measured after 5 mins by spectrophotometric assay; format: protein assay
[2] = target: T1, Alpha-glucosidase; experiment: Inhibition of Saccharomyces cerevisiae alpha-glucosidase using maltose as substrate incubated for 30 mins by spectrophotometric assay; format: protein assay
[3] = target: T1, Alpha-glucosidase; experiment: Inhibition of Saccharomyces cerevisiae alpha-glucosidase using PNPG as substrate incubated for 30 mins by spectrophotometric assay; format: protein assay
[4] = target: T1, Alpha-glucosidase; experiment: Inhibition of yeast alpha-glucosidase using p-nitrophenyl-alpha-D-glucopyranoside as substrate incubated for 30 mins by spectrophotometric assay; format: protein assay
[5] = target: T1, Alpha-glucosidase; experiment: Inhibition of yeast alpha-glucosidase assessed as release of p-nitrophenol using PNPG as substrate preincubated for 10 mins followed by substrate addition and measured after 35 mins by microplate photometer analysis; format: protein assay
[6] = target: T1, Alpha-glucosidase; experiment: Inhibition of Saccharomyces cerevisiae alpha-glucosidase using pNPG as preincubated for 15 mins followed by substrate addition and measured after 30 mins by spectroscopic analysis
[7] = target: T1, Alpha-glucosidase; experiment: Mixed-type inhibition of Saccharomyces cerevisiae alpha-glucosidase using PNPG as substrate incubated for 30 mins by Lineweaver-Burk double-reciprocal plot analysis; format: protein assay
[8] = target: T1, Alpha-glucosidase; experiment: Inhibition of Saccharomyces cerevisiae alpha-glucosidase assessed as release of p-nitrophenol using pNPG as substrate preincubated for 15 mins followed by substrate addition and measured after 15 mins by plate reader analysis; format: protein assay

SMILES: C=C(C)/C=C/[C@]1(C)C=CC2=C(O1)C(CC=C(C)C)=C1O[C@]34C(C(=O)[C@@H]1C2O)[C@@H](OC)[C@@H]1C[C@H]3C(C)(C)O[C@@]4(C/C=C(\C)C(=O)O)C1=O (stereo partly specified)
- IC50 [1]: 108.75 µM

SMILES: CC1Oc2cc(O)c3c(=O)c4c(O)ccc(O)c4oc3c2C1(C)C (stereo unspecified)
- IC50 [4]: 21.2 µM

SMILES: C=C(C)/C=C/C1(C)C=CC2=C(O1)C(CC=C(C)C)=C1O[C@]34C(C(=O)[C@@H]1C2O)[C@@H](O)[C@@H]1C[C@H]3C(C)(C)O[C@@]4(C/C=C(\C)C(=O)O)C1=O (stereo partly specified)
- IC50 [1]: 194.7 µM

SMILES: COc1c(OC)c(O)c2c(=O)c3c(O[C@H]4O[C@@H](CO[C@H]5OC[C@@H](O)[C@H](O)[C@H]5O)[C@H](O)[C@H](O)[C@@H]4O)ccc(OC)c3oc2c1OC
- IC50 [6]: > 1000 µM

SMILES: COc1ccc(O)c2c(=O)c3c(O[C@H]4O[C@@H](CO[C@H]5OC[C@@H](O)[C@H](O)[C@H]5O)[C@H](O)[C@H](O)[C@@H]4O)cc(O)c(OC)c3oc12
- IC50 [6]: 417 µM

SMILES: CC(C)=CCC1=C2O[C@]34C(=C[C@@H]5C[C@H]3C(C)(C)O[C@@]4(CC=C(C)C)C5=O)C(=O)[C@@H]2C(O)C2=C1OC(C)C=C2 (stereo partly specified)
- IC50 [1]: 140.95 µM

SMILES: COc1cc(O[C@H]2O[C@@H](CO[C@H]3OC[C@@H](O)[C@H](O)[C@H]3O)[C@H](O)[C@H](O)[C@@H]2O)c2c(=O)c3c(O)ccc(OC)c3oc2c1OC
- IC50 [6]: 142 µM

SMILES: COc1ccc2oc3ccc(O)cc3c(=O)c2c1
- IC50 [8]: 77.3 µg/mL (≈ 319 µM)

SMILES: COc1ccc2oc3ccc(O)cc3c(=O)c2c1OC
- IC50 [8]: 48.5 µg/mL (≈ 178 µM)

SMILES: O=c1c2c(O)cc(O)cc2oc2c(O)ccc(O[C@@H]3O[C@H](CO)[C@@H](O)[C@H](O)[C@H]3O)c12 [NORSWERTIANOLIN]
- IC50 [6]: 679 µM

SMILES: C=C(C)/C=C/[C@]1(C)C=CC2=C(O1)C(CC=C(C)C)=C1O[C@]34C(=C[C@@H]5C[C@H]3C(C)(C)O[C@@]4(CC=C(C)C)C5=O)C(=O)[C@@H]1C2O (stereo partly specified)
- IC50 [1]: 209.2 µM

SMILES: CO[C@@H]1C2C(=O)[C@H]3C(=C(CC=C(C)C)C4=C(C=CC(C)O4)C3O)O[C@@]23[C@H]2C[C@@H]1C(=O)[C@]3(C/C=C(\C)C(=O)O)OC2(C)C (stereo partly specified)
- IC50 [1]: 136.35 µM

SMILES: C=C(C)/C=C/[C@@]1(C)C=CC2=C(O1)C(CC=C(C)C)=C1O[C@]34C(C(=O)[C@@H]1C2O)[C@@H](OCC)[C@@H]1C[C@H]3C(C)(C)O[C@@]4(C/C=C(\C)C(=O)O)C1=O (stereo partly specified)
- IC50 [1]: > 300 µM

SMILES: COc1c(OC)c(O[C@H]2O[C@@H](CO[C@H]3OC[C@@H](O)[C@H](O)[C@H]3O)[C@H](O)[C@H](O)[C@@H]2O)c2c(=O)c3c(O)ccc(OC)c3oc2c1OC
- IC50 [6]: 442 µM

SMILES: COc1cc(O)c2c(=O)c3c(O[C@H]4O[C@@H](CO[C@H]5OC[C@@H](O)[C@H](O)[C@H]5O)[C@H](O)[C@H](O)[C@@H]4O)ccc(OC)c3oc2c1OC
- IC50 [6]: 136 µM

Second part, the compound after the results:

- IC50 [2]: > 200 µM
- IC50 [3]: 45 µM
SMILES: C=C(C)C1Cc2c(c(O)cc3oc4cc(O)c(CC=C(C)C)c(O)c4c(=O)c23)O1 (stereo unspecified) [MANGOSTENONE G]

- IC50 [4]: 20.7 µM
- IC50 [5]: 10.7 µM
SMILES: C=C(C)/C=C/c1c(O)cc2oc3cc(O)c(OC)c(C/C=C(\C)CC=C(C)C)c3c(=O)c2c1O

- IC50 [5]: 9.4 µM
SMILES: C=C(C)/C=C/c1c(OC)cc(O)c2c(=O)c3ccc(O)c(O)c3oc12

- IC50 [5]: 1.7 µM
SMILES: C=C(C)/C=C/c1c(O)cc2oc3cc(O)c(O)c(C/C=C(\C)CC=C(C)C)c3c(=O)c2c1O

- IC50 [4]: 18.2 µM
- IC50 [5]: 70.3 µM
SMILES: COc1c(O)cc2oc3cc(O)c(C/C=C(\C)COC(C)=O)c(O)c3c(=O)c2c1C/C=C(/C)CC=C(C)C

- Ki [7]: 1.4 µM
- IC50 [2]: 17.5 µM
- IC50 [3]: 1.5 µM
SMILES: C=C(C)/C=C/c1c(O)cc2oc3cc(O)c(O)c(/C=C/C(=C)C)c3c(=O)c2c1O

- IC50 [4]: 8.3 µM
SMILES: C=C(C)/C=C/c1c(O)c(OC)c(/C=C/C(=C)C)c2c(=O)c3c(O)c(CC(O)C(=C)C)c(O)cc3oc12 (stereo unspecified)

- IC50 [2]: 92.2 µM
- IC50 [3]: 34.2 µM
SMILES: C=C(C)/C=C/c1c(OC)c(O)cc2oc3cc4c(c(O)c3c(=O)c12)C=CC(C)(C)O4

- IC50 [5]: 7.8 µM
SMILES: C=C(C)/C=C/c1cc(O)c(O)c2oc3c(C/C=C(/C)CC=C(C)C)c(OC)cc(O)c3c(=O)c12

- IC50 [4]: 44 µM
SMILES: COc1cc2c(=O)c3c(O)c(C/C=C(\C)CCC=C(C)C)c(O)cc3oc2cc1O [COWAXANTHONE]

- IC50 [6]: 389 µM
SMILES: COc1cc(O)c2c(=O)c3c(O[C@@H]4O[C@H](CO)[C@@H](O)[C@H](O)[C@H]4O)ccc(O)c3oc2c1 [SWERTIANOLIN]

- IC50 [8]: 12.8 µg/mL (≈ 46.7 µM)
SMILES: COc1c(O)cc(O)c2c(=O)c3cc(O)ccc3oc12

- IC50 [4]: 94.4 µM
SMILES: C=C(C)/C=C/c1c(OC)c(OC)cc2oc3cc(O)c(CC(O)C(=C)C)c(O)c3c(=O)c12 (stereo unspecified)

- IC50 [5]: 12.4 µM
SMILES: COc1cc(O)c2c(=O)c3c(C/C=C(\C)CCC=C(C)C)c(OC)c(O)cc3oc2c1

- IC50 [6]: > 1000 µM
SMILES: COc1ccc(O)c2c(=O)c3c(O)cc(O[C@H]4O[C@@H](CO)[C@H](O)[C@H](O)[C@@H]4O)cc3oc12
